The structures appear in SMILES notation.

We go through 13 molecules from US6162830A, “Benzenesulfonamide inhibitors of PDE-IV and their therapeutic use” (Warner-Lambert Company, priority 2000, dated 2000).

In the test the test system is PDE-IV. Briefly: PDE-IV Assay Procedure (SPA, 3H-cAMP, U937 lysate). Format: biochemical. The settings on record: U937 cell lysate as PDE-IV source; 200 nM cAMP, 8 nM 3H-cAMP; pH 8.0; 2% DMSO; 1 hour at 37° C.; initially tested at 10, 3, 1, 0.3, 0.1 μM. The method, then: Representative compounds to be tested were diluted in 96-well plates. The compounds were either received as a 10 mM stock solution in DMSO, or as a solid which was resuspended to a concentration of 10 mM in DMSO. The compounds were initially tested at 10, 3, 1, 0.3, and 0.1 μM to calculate an IC50. In some cases, plates containing diluted compounds were frozen before being assayed. In these cases, the plates were thawed for 15 minutes at 37° C. and agitated before proceeding.
Two microliters of the diluted compounds on Rolipram were spotted into an assay plate. Ninety-eight microliters of reaction mixture containing PDE-IV enzyme were added to each well. The plate was then agitated for 2 minutes at a setting of 3.5 on a vortex and incubated for 1 hour at 37° C. The reaction was terminated with 50 μl of 0.5X SPA beads, and the reaction tray was allowed to incubate at room temperature for 20 minutes before radioactivity was measured using standard instrumentation.
The reaction mixture contained 35.2 mM Tris pH 8.0, 9.4 mM MgCl2, 4 mM β-mercapotoethanol, 200 nM cAMP, 8 nM ^3 H-cAMP, 2% DMSO 1% U937 lysate (from ABS). The reaction mixture was prepared by adding […] H2 O to 10 mL 10X Assay Buffer, 40 μL 1 μCi/μL ^3 H-cAMP, 20 μL 1 mM cAMP (cAMP stock made fresh each time), and 1 mL U937 cell lysate. 10X assay buffer was prepared by mixing 400 mM Tris Base with 400 mM Tris HCl to pH 8.0, adding to 100 mL of this Tris buffer solution, 1.017 g MgCl2, 319 μL μ-mercaptoethanol. 0.5X SPA beads was prepared by adding 500 mg beads to 56 mL H2 O for a final concentration of 8.9 mg/mL beads and 9 mM zinc sulfate.
A word on the IC50: it is the point on the concentration scale where inhibition reaches its midpoint. The low end stands for inhibition by little substance, the high end for a need for much substance. As for `CCCN(CCC)S(=O)(=O)c1ccc(OC)c(OC)c1` [Example 4, N,N-Dipropyl-3,4-dimethoxybenzenesulfonamide], the IC50 was found to be 0.46 µM.

Consider `C=CCN(CC=C)S(=O)(=O)c1ccc(OC)c(OC)c1` [Example 5, N,N-Di-(2-propenyl)-3,4-dimethoxybenzenesulfonamide], for which the IC50 was found to be 0.45 µM.

`CCOc1ccc(S(=O)(=O)N(C)C)cc1OCC` [Example 6, N,N-Dimethyl-3,4-diethoxybenzenesulfonamide] gave an IC50 of 0.28 µM.

Take `COc1ccc(S(=O)(=O)N2CCCCC2)cc1OC` [Example 7, N-(3,4-dimethoxybenzenesulfonyl)piperidine]: the IC50 was 3.6 µM.

`COc1ccc(S(=O)(=O)N2CCCC2)cc1OC` [Example 8, N-(3,4-dimethoxybenzenesulfonyl)pyrrolidine]: 3.2 µM corresponded to half-maximal inhibition (IC50).

As for `COc1ccc(S(=O)(=O)NC2CCCCC2)cc1OC` [Example 9, N-(3,4-dimethoxybenzenesulfonyl)cyclohexylamine], the midpoint of inhibition, the IC50, lay at 2.2 µM.

For `C#CCN(C)S(=O)(=O)c1ccc(OCC)c(OCC)c1` [Example 10, N-(2-Propynyl)-N-methyl-3,4-diethoxybenzenesulfonamide], the IC50 amounted to 0.17 µM.

Molecule `CCN(C)S(=O)(=O)c1ccc(OC)c(OC)c1` [Example 11, N-Ethyl-N-methyl-3,4-dimethoxybenzenesulfonamide] returned an IC50 of 0.7 µM.

As to `CCCN(C)S(=O)(=O)c1ccc(OC)c(OC)c1` [Example 12, N-Propyl-N-methyl-3,4-dimethoxybenzenesulfonamide], the IC50 stood at 0.47 µM.

Molecule `C=CCN(C)S(=O)(=O)c1ccc(OC)c(OC)c1` [Example 15, N-(2-Propenyl)-N-methyl-3,4-dimethoxybenzenesulfonamide] displayed an IC50 of 0.66 µM.

In turn, `CC=CCN(C)S(=O)(=O)c1ccc(OC)c(OC)c1` [Example 16, N-(2-Butenyl)-N-methyl-3,4-dimethoxybenzenesulfonamide] yielded an IC50 of 1.56 µM.

In turn, `C=CCN(C)S(=O)(=O)c1ccc(OCC)c(OCC)c1` [Example 17, N-(2-Propenyl)-N-methyl-3,4-diethoxybenzenesulfonamide] displayed an IC50 of 0.02 µM.

In turn, `COc1ccc(S(=O)(=O)N(C)CC#N)cc1OC` [Example 23, N-(methylenenitrile)-N-methyl-3,4-dimethoxybenzenesulfonamide] had an IC50 of 1.76 µM.
